In assay [1] the target is T1, HCV NS5B RdRp genotype 1b (Hepatitis C virus genotype 1b, UniProt Q9WMX2).
T1 construct: The protein was expressed with an 18 amino acid C-terminal truncation to enhance the solubility; made in house; host or cells: E. coli BL21 (DE3), pET21a
The assay can be described thus: Modified HCV NS5B RdRp enzyme assay (preincubation protocol). Type of assay: biochemical. The protocol: HCV NS5B RdRp cloning, expression, and purification. The cDNA encoding the NS5B protein of HCV, genotype 1b, was cloned into the pET21a expression vector. The protein was expressed with an 18 amino acid C-terminal truncation to enhance the solubility. The E. coli competent cell line BL21 (DE3) was used for expression of the protein. Cultures were grown at 37° C. for ˜4 hours until the cultures reached an optical density of 2.0 at 600 nm. The cultures were cooled to 20° C. and induced with 1 mM IPTG. Fresh ampicillin was added to a final concentration of 50 μg/ml and the cells were grown overnight at 20° C.
Cell pellets (3L) were lysed for purification to yield 15-24 mgs of purified NS5B. The lysis buffer consisted of 20 mM Tris-HCl, pH 7.4, 500 mM NaCl, 0.5% triton X-100, 1 mM DTT, 1 mM EDTA, 20% glycerol, 0.5 mg/ml lysozyme, 10 mM MgCl2, 15 ug/ml deoxyribonuclease I, and Complete TM protease inhibitor tablets (Roche). After addition of the lysis buffer, frozen cell pellets were resuspended using a tissue homogenizer. To reduce the viscosity of the sample, aliquots of the lysate were sonicated on ice using a microtip attached to a Branson sonicator. The sonicated lysate was centrifuged at 100,000×g for 1 hr at 4° C. and filtered through a 0.2 μm filter unit (Corning).
The protein was purified using three sequential chromatography steps: Heparin sepharose CL-6B, polyU sepharose 4B, and Hitrap SP sepharose (Pharmacia). The chromatography buffers were identical to the lysis buffer but contained no lysozyme, deoxyribonuclease I, MgCl2 or protease inhibitor and the NaCl concentration of the buffer was adjusted according to the requirements for charging the protein onto the column. Each column was eluted with a NaCl gradient which varied in length from 5-50 column volumes depending on the column type. After the final chromatography step, the resulting purity of the enzyme is >90% based on SDS-PAGE analysis. The enzyme was aliquoted and stored at −80° C.
Standard HCVNS5B RdRp enzyme assay. HCV RdRp genotype 1b assays were run in a final volume of 60 μl in 96 well plates (Costar 3912). The assay buffer is composed of 20 mM Hepes, pH 7.5, 2.5 mM KCl, 2.5 mM MgCl2, 1 mM DTT, 1.6 U RNAse inhibitor (Promega N2515), 0.1 mg/ml BSA (Promega R3961), and 2% glycerol. All compounds were serially diluted (3-fold) in DMSO and diluted further in water such that the final concentration of DMSO in the assay was 2%. HCV RdRp genotype 1b enzyme was used at a final concentration of 28 nM. A polyA template was used at 6 nM, and a biotinylated oligo-dT 12 primer was used at 180 nM final concentration. Template was obtained commercially (Amersham 27-4110). Biotinylated primer was prepared by Sigma Genosys. 3H-UTP was used at 0.6 μCi (0.29 μM total UTP). Reactions were initiated by the addition of enzyme, incubated at 30° C. for 60 min, and stopped by adding 25 μl of 50 mM EDTA containing SPA beads (4 μg/μl, Amersham RPNQ 0007). Plates were read on a Packard Top Count NXT after >1 hr incubation at room temperature.
Modified HCVNS5B RdRp enzyme assay. A modified enzyme assay was performed essentially as described for the standard enzyme assay except for the following: The biotinylated oligo dT12 primer was precaptured on streptavidin-coated SPA beads by mixing primer and beads in assay buffer and incubating at room temperature for one hour. Unbound primer was removed after centrifugation. The primer-bound beads were resuspended in 20 mM Hepes buffer, pH 7.5 and used in the assay at final concentrations of 20 nM primer and 0.67 μg/μl beads. Order of addition in the assay: enzyme (14 nM) was added to diluted compound followed by the addition of a mixture of template (0.2 nM), 3H-UTP (0.6 μCi, 0.29 μM), and primer-bound beads, to initiate the reaction; concentrations given are final. Reactions were allowed to proceed for 4 hours at 30° C.
IC50 values for compounds were determined using seven different [I]. […]

For a further assay, the system named is HCV replicon cells. Nature of the assay: HCV replicon FRET assay. Type of assay: cell-based. Conditions: Hepatitis C virus. The text has this:
FRET Assay Preparation. To perform the HCV FRET screening assay, 96-well cell culture plates were used. The FRET peptide (Anaspec, Inc.) (Taliani et al., Anal. Biochem. 1996, 240, 60-67) contains a fluorescence donor, EDANS, near one end of the peptide and an acceptor, DABCYL, near the other end. The fluorescence of the peptide is quenched by […] resonance energy transfer (RET) between the donor and the acceptor, but as the NS3 protease cleaves the peptide the products are released from RET quenching and the fluorescence of the donor becomes apparent. The assay reagent was made as follows: 5× cell Luciferase cell culture lysis reagent from Promega (#E153A) diluted to 1× with dH2O, NaCl added to 150 mM final, the FRET peptide diluted to 20 uM final from a 2 mM stock.
To prepare plates, HCV replicon cells, with or without a Renilla luciferase reporter gene, were trypsinized and placed into each well of a 96-well plate with titrated test compounds added in columns 3 through 12; columns 1 and 2 contained a control compound (HCV protease inhibitor), and the bottom row contained cells without compound. The plates were then placed in a CO2 incubator at 37° C.
Assays. Subsequent to addition of the test compounds described above (FRET Assay Preparation), at various times the plate was removed and Alamar blue solution (Trek Diagnostics, #00-100) was added per well as a measure of cellular toxicity. After reading in a Cytoflour 4000 instrument (PE Biosystems), plates were rinsed with PBS and then used for FRET assay by the addition of 30 ul of the FRET peptide assay reagent described above (FRET Assay Preparation) per well. The plate was then placed into the Cytoflour 4000 instrument which had been set to 340 excite/490 emission, automatic mode for 20 cycles and the plate read in a kinetic mode. Typically, the signal to noise using an endpoint analysis after the reads was at least three-fold. Alternatively, after Alamar blue reading, plates were rinsed with PBS, 50 ul of DMEM (high glucose) without phenol red was added and plates were then used for luciferase assay using the Promega Dual-Glo Luciferase Assay System.
Compound analysis was determined by quantification of the relative HCV replicon inhibition and the relative cytotoxicity values. To calculate cytoxicity values, the average Alamar Blue fluorescence signals from the control wells were set as 100% non-toxic. The individual signals in each of the compound test wells were then divided by the average control signal and multiplied by 100% to determine […]. To calculate the HCV replicon inhibition values, an average background value was obtained from the two wells containing the highest amount of HCV protease inhibitor at the end of the assay period. These numbers were similar to those obtained from naïve Huh-7 cells.
The background numbers were then subtracted from the average signal obtained from the control wells and this number was used as 100% activity. The individual signals in each of the compound test wells were then divided by the averaged control values after background subtraction and multiplied by 100% to determine percent activity. EC50 values for a protease inhibitor titration were calculated as the concentration which caused a 50% reduction in FRET or luciferase activity. The two numbers generated for the compound plate, percent cytoxicity and percent activity were used to determine compounds of interest for further analysis.
Background: A replicon is a self-replicating genome or part of one, used to study replication in cells.

T1 sequence (Q9WMX2 2420-2992): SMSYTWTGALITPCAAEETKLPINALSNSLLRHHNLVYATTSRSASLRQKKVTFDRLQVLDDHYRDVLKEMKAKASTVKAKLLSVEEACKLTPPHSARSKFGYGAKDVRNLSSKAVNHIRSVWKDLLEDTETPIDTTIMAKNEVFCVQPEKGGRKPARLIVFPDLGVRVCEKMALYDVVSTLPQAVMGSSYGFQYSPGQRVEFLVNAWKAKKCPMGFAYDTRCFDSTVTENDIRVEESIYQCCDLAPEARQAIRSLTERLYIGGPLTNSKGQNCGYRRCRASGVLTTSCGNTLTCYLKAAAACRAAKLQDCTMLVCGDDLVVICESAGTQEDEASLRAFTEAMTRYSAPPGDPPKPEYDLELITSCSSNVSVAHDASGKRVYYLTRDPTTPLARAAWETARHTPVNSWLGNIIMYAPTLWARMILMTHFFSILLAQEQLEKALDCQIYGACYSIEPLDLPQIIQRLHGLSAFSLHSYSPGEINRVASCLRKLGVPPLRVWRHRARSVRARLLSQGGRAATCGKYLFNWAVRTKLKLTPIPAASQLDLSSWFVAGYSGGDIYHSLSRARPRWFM

By IC50 is commonly meant the midpoint of a concentration-inhibition curve. Lower therefore signals higher potency. Usually EC50 stands for the concentration needed to bring the measured effect to its halfway point. In assay [1], `COc1ccc2c(c1)C1CC1(NC(=O)N1CCOCC1)Cn1c-2c(C2CCCCC2)c2ccc(C(=O)O)cc21` (stereo not shown) displayed a half-inhibitory concentration (IC50) of 0.02 to 1 µM. The EC50 with HCV replicon cells lay in the range of 0.07 to 1 µM. The corresponding values for `COc1ccc2c(c1)[C@@H]1C[C@]1(N)Cn1c-2c(C2CCCCC2)c2ccc(C(=O)NS(=O)(=O)N(C)C)cc21` are 0.02 to 1 µM and 0.02 to 1 µM. In the case of `CNC12CC1c1cc(OC)ccc1-c1c(C3CCCCC3)c3ccc(C(=O)NS(=O)(=O)N(C)C)cc3n1C2` (stereo not shown), the IC50 in assay [1] lay within 0.02 to 1 µM. `COc1ccc2c(c1)C1CC1(NC(=O)N1C[C@@H](C)N(C)[C@@H](C)C1)Cn1c-2c(C2CCCCC2)c2ccc(C(=O)NS(=O)(=O)N(C)C)cc21` (stereo partly shown): the IC50 in assay [1] was in the range of 0.02 to 1 µM. The molecule also registered a 50% effective concentration (EC50) with HCV replicon cells of 0.02 to 1 µM. Turning to `COc1ccc2c(c1)C1CC1(NC(=O)N(C)CC(=O)N1CCN(C)CC1)Cn1c-2c(C2CCCCC2)c2ccc(C(=O)NS(=O)(=O)N(C)C)cc21` (stereo not shown), the IC50 in assay [1] is 0.02 to 1 µM. Moreover, in the assay with HCV replicon cells, the concentration giving a half-maximal response (EC50) fell in the range of 0.02 to 1 µM.

`COc1ccc2c(c1)C1CC1(NC(=O)N(C)CC1CCOCC1)Cn1c-2c(C2CCCCC2)c2ccc(C(=O)NS(=O)(=O)N(C)C)cc21` (stereo not shown) showed a concentration for half-maximal inhibition (IC50) in assay [1] of 0.02 to 1 µM. In the assay with HCV replicon cells, this molecule registered an EC50 of 0.02 to 1 µM. For `COc1ccc2c(c1)[C@@H]1C[C@]1(NC(=O)OC(C)(C)C)Cn1c-2c(C2CCCCC2)c2ccc(C(=O)NS(=O)(=O)N(C)C)cc21`, the IC50 in assay [1] lay in the range of 0.02 to 1 µM. This molecule also displayed a concentration for a half-maximal effect (EC50) in the assay on HCV replicon cells of 0.02 to 1 µM. As for `COC(=O)c1ccc2c(C3CCCCC3)c3n(c2c1)CC1(NC(=O)N2CCOCC2)CC1c1ccccc1-3` (stereo not shown), in assay [1], the IC50 is 0.02 to 1 µM. `COc1ccc2c(c1)C1CC1(NC(=O)N1C[C@@H](C)O[C@@H](C)C1)Cn1c-2c(C2CCCCC2)c2ccc(C(=O)NS(=O)(=O)N(C)C)cc21` (stereo partly shown) gave a 50% inhibitory concentration (IC50) in assay [1] of 0.02 to 1 µM. In the assay with HCV replicon cells, the EC50 lay in the range of 0.07 to 1 µM.

Turning to `O=C(O)c1ccc2c(C3CCCCC3)c3n(c2c1)CC1(NC(=O)N2CCOCC2)CC1c1ccccc1-3` (stereo not shown), the IC50 in assay [1] was in the range of 0.02 to 1 µM. This molecule also returned an EC50 in the assay on HCV replicon cells of 0.07 to 1 µM. The corresponding values for `COCCNC(=O)CN(C)C(=O)NC12CC1c1cc(OC)ccc1-c1c(C3CCCCC3)c3ccc(C(=O)NS(=O)(=O)N(C)C)cc3n1C2` (stereo not shown) are 0.02 to 1 µM and 0.02 to 1 µM. On to `COc1ccc2c(c1)C1CC1(NC(=O)N(C)CC(N)=O)Cn1c-2c(C2CCCCC2)c2ccc(C(=O)NS(=O)(=O)N(C)C)cc21` (stereo not shown), for which, in assay [1], the IC50 was in the range of 0.02 to 1 µM. Also, in the assay on HCV replicon cells, the EC50 is 0.02 to 1 µM. In the case of `COc1ccc2c(c1)C1CC1(N)Cn1c-2c(C2CCCCC2)c2ccc(C(=O)NS(=O)(=O)N(C)C)cc21` (stereo not shown), the 50% inhibitory concentration (IC50) in assay [1] was 0.02 to 1 µM. This molecule also showed a 50% effective concentration (EC50) with HCV replicon cells of 0.02 to 1 µM. In assay [1], `COc1ccc2c(c1)C1CC1(NC(=O)N(C)CCN(C)C)Cn1c-2c(C2CCCCC2)c2ccc(C(=O)NS(=O)(=O)N(C)C)cc21` (stereo not shown) returned an IC50 of 0.02 to 1 µM. The same molecule showed an EC50 in the assay on HCV replicon cells of 0.02 to 1 µM. Take `COc1ccc2c(c1)C1CC1(NC(=O)N1CC(OC)C1)Cn1c-2c(C2CCCCC2)c2ccc(C(=O)NS(=O)(=O)N(C)C)cc21` (stereo not shown): in assay [1], the half-maximal inhibitory concentration (IC50) lay in the range of 0.02 to 1 µM. In addition, in the assay with HCV replicon cells, the half-maximal effective concentration (EC50) is 0.02 to 1 µM.

Consider `COc1ccc2c(c1)C1CC1(NC(=O)OC(C)(C)C)Cn1c-2c(C2CCCCC2)c2ccc(C(=O)NS(=O)(=O)N(C)C)cc21` (stereo not shown), for which the 50% inhibitory concentration (IC50) in assay [1] lay within 0.02 to 1 µM. For the same molecule, the concentration for a half-maximal effect (EC50) with HCV replicon cells lay within 0.02 to 1 µM. Take `COC(=O)c1ccc2c(C3CCCCC3)c3n(c2c1)CC1(NC(=O)N2CCOCC2)CC1c1cc(OC)ccc1-3` (stereo not shown): the half-maximal inhibitory concentration (IC50) in assay [1] fell in the range of 0.02 to 1 µM.

Source of the values: patent publication US7452876B2, “Cyclopropyl fused indolobenzazepine HCV NS5B inhibitors” (Bristol-Myers Squibb Company, priority 2006, dated 2008).
